Measurements taken from ChEMBL document CHEMBL1127000, “Synthesis and excitatory amino acid pharmacology of some novel quinoxalinediones” (Bioorg Med Chem Lett, 1993).

Columns and labels:
[1] = biological target: Glutamate receptor ionotropic, NMDA 1 (Rattus norvegicus, UniProt P35439); test: Binding affinity for glycine site-NMDA receptor was determined by the ability to displace [3H]glycine in rat cortical membranes; assay type: cell membranes
[2] = biological target: Glutamate receptor ionotropic, AMPA (Rattus norvegicus, UniProt P19490+P19491+P19492+P19493)
[3] = biological target: Glutamate receptor ionotropic, AMPA (Rattus norvegicus) (UniProt P19491+P19492+P19493+P19490); test: Binding affinity for Ionotropic glutamate receptor AMPA was determined by the ability to displace [3H]AMPA in rat cortical membranes at 10 uM; assay type: cell membranes
[4] = biological target: Glutamate receptor ionotropic, NMDA 1 (Rattus norvegicus) (UniProt P35439); test: Binding affinity for glycine site-NMDA receptor was determined by the ability to displace [3H]glycine in rat cortical membranes at 10 uM; assay type: cell membranes
[5] = biological target: Glutamate receptor ionotropic, NMDA 1 (Rattus norvegicus) (UniProt P35439); test: Tested for the ability to displace [3H]glycine in rat cortical membranes at a concentration of 10 uM; assay type: cell membranes

O=C(O)Cn1c(=O)c(=O)[nH]c2cc(Cl)c(Cl)cc21
Ki [1]: 110 nM
Ki [2]: 2100 nM

O=c1[nH]c2cc(Cl)c(Cl)cc2n(Cc2nn[nH]n2)c1=O
Displacement [3]: 58.6%
Displacement [4]: 58.8%

Cc1cc2[nH]c(=O)c(=O)n(CP(=O)(O)O)c2cc1C
Ki [1]: 5280 nM
Ki [2]: 1210 nM

COC(=O)Cn1c(=O)cnc2cc(C)c(C)cc21
Displacement [3]: 4.6%
Displacement [5]: 8%

Cc1cc2[nH]c(=O)c(=O)n(CCC(=O)O)c2cc1C
Displacement [3]: 28.5%
Displacement [4]: 58.2%

Cc1cc2[nH]c(=O)c(=O)n(CCCC(=O)O)c2cc1C
Displacement [4]: 29.6%
Ki [2]: 8000 nM

Cc1cc2[nH]c(=O)c(=O)n(CC(=O)Nc3ccccc3)c2cc1C
Displacement [3]: 5.2%
Displacement [5]: 2.9%

Cc1cc2[nH]c(=O)c(=O)n(CC(=O)O)c2cc1C
Ki [1]: 13800 nM
Ki [2]: 700 nM

Cc1ccc(S(=O)(=O)NC(=O)Cn2c(=O)c(=O)[nH]c3cc(C)c(C)cc32)cc1
Displacement [3]: 28%
Displacement [4]: 48%

Cc1cc2[nH]c(=O)c(=O)n(C(C)C(=O)O)c2cc1C (centres undefined)
Displacement [3]: 13.9%
Displacement [4]: 2.6%

Cc1cc2[nH]c(=O)c(=O)n(Cc3nn[nH]n3)c2cc1C
Displacement [3]: 52.4%
Displacement [4]: 49.6%

Cc1cc2[nH]c(=O)c(=O)n(CC(=O)NS(C)(=O)=O)c2cc1C
Displacement [3]: 49%
Displacement [4]: 36%
